Literature values as cited in PMC7984856 (European journal of medicinal chemistry, 2021).

Test system: catalepsy in rats
Settings: previous in vivo behavioral studies, ref [29]

SMILES: Fc1ccc(CCCCN2CCN(c3ccccn3)CC2)cc1 [Compound 2, 1-(4-(4-fluorophenyl)butyl)-4-(pyridin-2-yl)piperazine]
- propensity to cause catalepsy: low propensity to cause catalepsy
